Results from patent US20040014028A1, “Method for determination of protective epitopes for vaccination, diagnosis and vaccine quality control” (Wolf Biotech, priority 2002, published 2004).

Experiments:
[1] = tested on: swine neutralizing serum; experiment: Synthetic peptide ELISA with swine anti-PRRSV neutralizing serum; assay type: binding; details: NS from different immunized swine
Experimental: (§1) In FIG. 6 there is show the reactivity of Monoclonal antibody ISU25-C1 and swine anti-PRRSV hyperimmune sera to synthetic peptides bound to MBS coated ELISA plates. Results are expressed as corrected Optical density (OD) at 405 nm (OD405): (OD tested peptide-OD irrelevant peptide P7, Table 1). SN titer was determined against PRRSV Iowa strain. ELISA s/p ratio was determined as the difference in the optical density (OD) of the test serum between viral and control antigens divided by the difference in the OD of the positive reference between viral and control antigens. Serums 3, 5, 6 y 8 are from PRRSV-hyperimmunized pigs, serum 19 is a negative control, ISU 25-C1 and ISU 19A1 (Yang, L et al, Arch. Virol. 145:1599-1619, 2000) are anti-PRRSV neutralizing and non-neutralizing monoclonal antibodies respectively.
(§2) Several deduced peptides and variations of them were synthesized using solid phase technology and Fmoc standart chemistry. To perform ELISAs with these synthetic peptides, they were diluted in PBS pH 6.8 to a final concentration of 50 μg/ml, and then were used to coat Reacti-Bind Maleimide-Activated Plates (Pierce, Rockford, Ill.) for 5 hours at room temperature. Remaining maleimide groups were blocked by a 1-hour incubation with cysteine-HCl 10 μg/ml diluted in PBS pH 6.8. An extra blocking step was carried out by incubating the plate with PBS containing 10% milk. Sera or affinity-purified antibodies were added in different dilutions and incubated for 1 hour at room temperature.

[2] = tested on: R4N/R1N-affinity purified antibodies; experiment: Synthetic peptide ELISA on maleimide-activated plates with R4N/R1N-affinity purified antibodies; assay type: binding, swine; details: synthetic peptides bound to MBS coated plates
Experimental: (§3) In FIG. 7, there is shown the reactivity of anti peptides-affinity purified antibodies to synthetic peptides bound to MBS coated ELISA plates. Results are expressed as corrected OD405 (OD tested peptide-OD irrelevant peptide P7, Table 1).
as §2
(§4) Based on the previous results, anti-epitope A and anti-epitope B antibodies were affinity purified from a pool of precipitated antibodies with a SN titer of 1:512 using Keyhole-limpet hemocianine (KLH)-conjugated peptides coupled to CNBr-activated Sepharose as ligand as it is known in the art. R4N/R1N-affinity purified antibodies recognized peptides R4N, peptide R1N and peptide S1. All these peptides contain an (A/V)LVN motif.

[3] = tested on: anti-peptide S2-affinity purified antibodies; experiment: Synthetic peptide ELISA on maleimide-activated plates with anti-peptide S2-affinity purified antibodies; assay type: binding, swine; details: for recognition by S2 affinity purified antibodies in ELISA: synthetic peptides bound to MBS coated plates; for ELISA signal (OD) with anti-peptide S2 affinity-purified antibodies: synthetic peptide bound to ELISA plate
Experimental: as §3, §2, §4

[4] = tested on: anti-peptide S2-affinity purified antibodies; experiment: Inhibition by synthetic peptides of binding of anti-peptide S2-affinity purified antibodies to phage clone S2-4; parameters: species or system swine; details: serial five-fold dilutions of peptide
Experimental: In FIG. 8, there is shown the inhibition by synthetic peptides of the binding of anti-peptide S2-affinity purified antibodies to phage clone S2-4. Serial five-fold dilutions of synthetic peptides S2 (filled squares), S3 (X) or irrelevant peptide P7(filled circle) were used. Results are expressed as the percentage of the signal obtained with anti-peptide S2 affinity purified antibodies in wells to which no peptides were added. Values are the average of four readings.
This stresses the importance of motif SHF in the composition of epitope B. Anti-peptide S2 affinity-purified antibodies, recognized to a similar extent peptides S2 (OD: 0.336) and S6 (OD: 0.369), confirming that residues H^38, Q^40, I^42, Y^43 and N^44 constitute the core of epitope B.

[5] = tested on: Monoclonal antibody ISU25-C1; experiment: Synthetic peptide ELISA with monoclonal antibody ISU25-C1; assay type: binding, mouse
Experimental: as §1
as §2, with “Sera or affinity-purified antibodies were added in different dilutions and incubated for 1 hour at room temperature.” left out

[6] = tested on: Monoclonal antibody ISU25-C1; experiment: Competition ELISA: inhibition by synthetic peptides of binding of monoclonal antibody ISU25-C1 to PRRSV-coated strips; parameters: species or system mouse; details: peptide concentration 333 μM
Description: In FIG. 5 there is shown the inhibition by synthetic peptides of the binding of monoclonal antibody ISU25C1 (solid lines) or monoclonal antibody ISU19-A1 (dofted lines) to PRRSV in ELISA. Serial five-fold dilutions of synthetic peptide S4 were used (filled squares). Unrelated peptide P7 was used with monoclonal antibody ISU25C1 as a negative control (filled circles). Results are expressed as the percentage of the anti PRRSV-specific signal obtained with each monoclonal antibody in wells to which no peptides were added. Values are the average of four readings.
To perform competition assays, several dilutions of peptide S4 and irrelevant peptide […] (shown in Table 1) were incubated with Monoclonal antibody ISU25-C1 for 1.5 hours at room temperature. Then, the antibody-peptide mix was added to PRRSV-coated ELISA strips (IDDEX Lab., Inc; Westbrook, Me.) for 45 minutes.

[7] = tested on: sera from hyperimmunized pigs; experiment: Phage-ELISA with sequential sera from hyperimmunized pigs; assay type: binding, swine; details: early sera (20 days pi), ELISA positive, negative or low SN titer
Experimental: Epitopes A and B are represented by phage clones 01 and S2-4 (FIG. 1), respectively. ELISA s/p ratio was determined as the difference in the optical density (OD) of the test serum between viral and control antigens divided by the difference in the OD of the positive reference between viral and control antigens.
(§5) To detect peptides on the coat of phages, individual clones shown in FIG. 3 were propagated for 4.5 hours in E. coli ER2738 and then they were purified by two precipitations with PEG 8000. […] phages were added to each well of a Immulon 2HB (Dynex Technologies Inc, Chantilly, Va.) in sodium bicarbonate 0.1 M pH 8.6, and incubated for 16 hours at room temperature in a humidified chamber. Plates were blocked with PBS containing 10% milk for three hours at room temperature. Swine sera or Monoclonal antibody from the tissue culture supernatant were preadsorbed in PBS containing 10% non-fat milk added with 100 μg/ml of E. coli proteins. […] The results were read in a spectrophotometer at 405 nm.
Anti-PRRSV neutralizing antibodies appear late after infection and they are mainly directed against GP5. To determine a correlation between time post-infection and epitope recognition, we evaluated sera from several pigs at two different times of the hyperimmunization protocol as shown in FIG. 9.

[8] = tested on: Monoclonal antibody ISU25-C1; experiment: Phage-ELISA with monoclonal antibody ISU25-C1; assay type: binding, mouse
Experimental: (§6) In FIG. 4 there is shown the reactivity of swine sera and monoclonal antibodies to selected cloned phages. Results are expressed as corrected OD405 (OD of selected phage-OD unselected phage library NS: serum from pig #6 with a neutralizing titer >64 and ELISA s/p ratio 1.053 NNS: serum from pig #5 with a neutralizing titer <4 and ELISA s/p ratio 0.652.
as §5, with “proteins. In addition, 10^10 pfu/ml of non-selected phages were added to the antibodies to reduce background caused by anti M-13 activity found in animal sera. The plates were washed six times with PBS 0.05% Tween-20 and the peroxidase-conjugated secondary antibody (1:500) was added for 30 minutes at 37 C.” for “proteins.”

[9] = tested on: swine anti-PRRSV NNS; experiment: Phage-ELISA with swine anti-PRRSV non-neutralizing serum; assay type: binding
Experimental: as §6
as §5, with “proteins. In addition, 10^10 pfu/ml of non-selected phages were added to the antibodies to reduce background caused by anti M-13 activity found in animal sera. The plates were washed six times with PBS 0.05% Tween-20 and the peroxidase-conjugated secondary antibody (1:500) was added for 30 minutes at 37 C.” for “proteins.”

[10] = tested on: swine anti-PRRSV NS; experiment: Phage-ELISA with swine anti-PRRSV neutralizing serum; assay type: binding
Experimental: as §6
as §5, with “proteins. In addition, 10^10 pfu/ml of non-selected phages were added to the antibodies to reduce background caused by anti M-13 activity found in animal sera. The plates were washed six times with PBS 0.05% Tween-20 and the peroxidase-conjugated secondary antibody (1:500) was added for 30 minutes at 37 C.” for “proteins.”

Sequence	recognition by swine neutralizing serum in peptide ELISA [1]	recognition by R4N/R1N-affinity purified antibodies in ELISA [2]	recognition by S2 affinity purified antibodies in ELISA [3]	also measured
ALVNIPISNNLAC [peptide R4N]	recognized	recognized	did not recognize	–
SGSGANNSSSSGSGSIYNC [peptide S3, peptide S2 with motif SHF replaced by GSG]	completely abrogated	–	did not recognize	inhibition of the binding of anti-peptide S2-affinity purified antibodies to clone S2-4 [4]: inhibited the binding
SGSGANNSSSSHFQSIYNC [peptide S2, GP5 residues 27-44 with residues 27-30 changed to SGSG]	still recognized	did not recognize	recognized	inhibition of the binding of anti-peptide S2-affinity purified antibodies to clone S2-4 [4]: inhibited to a greater extent than peptide S3; ELISA signal (OD) with anti-peptide S2 affinity-purified antibodies [3]: 0.336 OD; recognition by Monoclonal antibody ISU25-C1 in peptide ELISA [5]: does not recognize
SGSGANSNSSSHLQLIYNLTLCELC [S6]	–	–	–	ELISA signal (OD) with anti-peptide S2 affinity-purified antibodies [3]: 0.369 OD
SGSGSNNSSSSAC [peptide ΔR1N, R1N with residues 27-30 VLVN changed to irrelevant motif SGSG]	abrogated	did not recognize	–	–
SHITSYPAYFWC [peptide S4, mimotope for ISU25-C1]	do not recognize	–	–	inhibition of the binding of Monoclonal antibody ISU25-C1 to PRRSV [6]: 60%; recognition by Monoclonal antibody ISU25-C1 in peptide ELISA [5]: recognized
VLVNANNSSSSHFQSIYNC [peptide S1, residues 27 to 43 of GP5 of IA 97-7895, contains motifs VLVN and HXXXIYN]	strongly recognized	recognized	recognized	–
VLVNSNNSSSSAC [peptide R1N, aminoacids 27-38 of the GP5 of PRRSV IA 97-7895 isolate]	recognized	recognized	did not recognize	–
YKNTHLDLIYNA [phage clone S2-4]	–	–	–	reactivity of sera obtained shortly after the beginning of the immunization [7]: very weakly; recognition of phage-displayed peptide by Monoclonal antibody ISU25-C1 [8]: not by swine non-neutralizing serum or by monoclonal antibody ISU25-C1; recognition of phage-displayed peptide by swine anti-PRRSV non-neutralizing serum (NNS) [9]: not by swine non-neutralizing serum; recognition of phage-displayed peptide by swine anti-PRRSV neutralizing serum (NS) [10]: strongly recognized
